Data taken from the CombiSolv-Exp solvation set (Vermeire and Green 2021).
Blank lines part the entries; values can stand above or below the compound they belong to.

Test: solvent given as SMILES
[1] = in CCCCCCCCC=CCCCCCCCC(=O)OCC(COC(=O)CCCCCCCC=CCCCCCCCC)OC(=O)CCCCCCCC=CCCCCCCCC

Structure (SMILES): CCCCOC(C)=O
solvation free energy, 298 K (in CC(=O)N(C)C): -5.24 kcal/mol
solvation free energy, 298 K (in CC(C)CCCC(C)CCCC(C)CCCCC(C)CCCC(C)CCCC(C)C): -4.52 kcal/mol
solvation free energy, 298 K (in CCCCC(CC)COC(=O)CCCCC(=O)OCC(CC)CCCC): -4.89 kcal/mol
solvation free energy, 298 K (in CCCCCC): -4.94 kcal/mol
solvation free energy, 298 K (in CCCCCCC): -4.92 kcal/mol
solvation free energy, 298 K (in CCCCCCCC): -4.9 kcal/mol
solvation free energy, 298 K [1]: -5.07 kcal/mol
solvation free energy, 298 K (in CCCCCCCCCC): -4.75 kcal/mol
solvation free energy, 298 K (in CCCCCCCCCCCCCCCC): -4.52 kcal/mol
solvation free energy, 298 K (in CCCCCCCCO): -5.01 kcal/mol
solvation free energy, 298 K (in CCCCN(C=O)CCCC): -5.24 kcal/mol
solvation free energy, 298 K (in CNC(C)=O): -5.14 kcal/mol
solvation free energy, 298 K (in CO): -5.36 kcal/mol
solvation free energy, 298 K (in NC=O): -4.07 kcal/mol
solvation free energy, 298 K (in O): -2.65 kcal/mol
solvation free energy, 298 K (in [2H]O[2H]): -2.76 kcal/mol

Structure (SMILES): CN(C)N=O
solvation free energy, 298 K (in CC(C)CC(C)(C)C): -3.83 kcal/mol
solvation free energy, 298 K (in O): -6.02 kcal/mol

Structure (SMILES): FC(F)(F)C(F)(F)C(F)(F)C(F)(F)C(F)(F)C(F)(F)C(F)(F)F
solvation free energy, 298 K (in CCCCCCC): -2.35 kcal/mol
solvation free energy, 298 K (in CCCCO): -1.29 kcal/mol
solvation free energy, 298 K (in CCCO): -1.24 kcal/mol
solvation free energy, 298 K (in S=C=S): -0.45 kcal/mol

Structure (SMILES): Cc1ccc2ccccc2c1
solvation free energy, 298 K (in O): -2.18 kcal/mol

Structure (SMILES): COCCOC(=O)c1ccccc1C(=O)OCCOC
solvation free energy, 298 K (in O): -13.5 kcal/mol

Structure (SMILES): CCCBr
solvation free energy, 298 K (in C=CCCCCCCCCCCCCCC): -3.56 kcal/mol
solvation free energy, 298 K (in ClC(Cl)(Cl)Cl): -4.17 kcal/mol
solvation free energy, 298 K (in O): -0.56 kcal/mol

Structure (SMILES): Nc1ccc(-c2ccc(N)cc2)cc1
solvation free energy, 298 K (in Cc1ccccc1C): -15.7 kcal/mol

Structure (SMILES): Clc1cc(Cl)c(Cl)c(Cl)c1
solvation free energy, 298 K (in CCCCCCCCO): -7.57 kcal/mol
solvation free energy, 298 K (in O): -1.62 kcal/mol

Structure (SMILES): Clc1ccc(-c2cc(Cl)c(Cl)cc2Cl)cc1Cl
solvation free energy, 298 K (in O): -3.36 kcal/mol

Structure (SMILES): C=CCCCC=C
solvation free energy, 298 K (in CCCCOC(C)=O): -4.42 kcal/mol
solvation free energy, 298 K (in CCOC(C)=O): -4.6 kcal/mol
solvation free energy, 298 K (in O): 1.16 kcal/mol

Structure (SMILES): CN(Cc1ccccc1)N=O
solvation free energy, 298 K (in O): -7.03 kcal/mol

Structure (SMILES): Brc1c(Br)c(Br)c(Br)c(Br)c1Br
solvation free energy, 298 K [1]: -12.7 kcal/mol
solvation free energy, 298 K (in O): -3.08 kcal/mol

Structure (SMILES): O=C1C=CC(=O)C=C1
solvation free energy, 298 K (in O): -6.5 kcal/mol

Structure (SMILES): CCCOC(=O)c1ccccc1C(=O)OCCC
solvation free energy, 298 K (in O): -7.56 kcal/mol

Structure (SMILES): Clc1cc(-c2cc(Cl)c(Cl)c(Cl)c2Cl)cc(Cl)c1Cl
solvation free energy, 298 K (in O): -3.17 kcal/mol

Structure (SMILES): CC(C)C#N
solvation free energy, 298 K (in CCCCCCCCCCCCCCCC): -3.08 kcal/mol
solvation free energy, 298 K (in CCCCCCCCO): -3.92 kcal/mol
solvation free energy, 298 K (in O): -3.31 kcal/mol
solvation free energy, 298 K (in [2H]O[2H]): -3.29 kcal/mol

Structure (SMILES): CC(C)=CC(C)(C)C
solvation free energy, 298 K (in CCC(C)=O): -4.39 kcal/mol
solvation free energy, 298 K (in O): 1.84 kcal/mol

Structure (SMILES): CCN(CC)N=O
solvation free energy, 298 K (in CC(C)CC(C)(C)C): -5.28 kcal/mol
solvation free energy, 298 K (in O): -5.46 kcal/mol

Structure (SMILES): CCN(CC)c1c([N+](=O)[O-])cc(C(F)(F)F)c(N)c1[N+](=O)[O-]
solvation free energy, 298 K (in O): -5.66 kcal/mol

Structure (SMILES): Brc1ccccc1
solvation free energy, 298 K (in C1CCOC1): -6.45 kcal/mol
solvation free energy, 298 K (in C1COCCO1): -6.45 kcal/mol
solvation free energy, 298 K (in CCCCCC): -5.66 kcal/mol
solvation free energy, 298 K (in CCCCCCC): -5.72 kcal/mol
solvation free energy, 298 K (in CCCCCCCCCC): -5.43 kcal/mol
solvation free energy, 298 K (in CCCCCCCCCCCCCCCC): -5.47 kcal/mol
solvation free energy, 298 K (in CN(C)C=O): -6.21 kcal/mol
solvation free energy, 298 K (in COCCO): -5.73 kcal/mol
solvation free energy, 298 K (in ClC(Cl)(Cl)Cl): -6.23 kcal/mol
solvation free energy, 298 K (in NC=O): -4.11 kcal/mol
solvation free energy, 298 K (in O): -1.46 kcal/mol
solvation free energy, 298 K (in OCCO): -4.42 kcal/mol

Structure (SMILES): O=c1[nH]c(=O)[nH]c(=O)[nH]1
solvation free energy, 298 K (in O): -18.1 kcal/mol

Structure (SMILES): FC(Cl)(Cl)C(F)(Cl)Cl
solvation free energy, 298 K (in C1CCOC1): -4.82 kcal/mol
solvation free energy, 298 K (in C1COCCO1): -4.46 kcal/mol
solvation free energy, 298 K (in CC(C)=O): -4.45 kcal/mol
solvation free energy, 298 K (in CCCCCC): -4.43 kcal/mol
solvation free energy, 298 K (in CCCCCCC): -3.98 kcal/mol
solvation free energy, 298 K (in CCCO): -3.64 kcal/mol
solvation free energy, 298 K (in CCOC(C)=O): -4.62 kcal/mol
solvation free energy, 298 K (in COC(C)(C)C): -4.68 kcal/mol
solvation free energy, 298 K (in O): 0.87 kcal/mol

Structure (SMILES): CN(C)C
solvation free energy, 298 K (in CC(C)=O): -2.56 kcal/mol
solvation free energy, 298 K (in CCCCCC): -2.63 kcal/mol
solvation free energy, 298 K (in CCCCCCC): -2.44 kcal/mol
solvation free energy, 298 K (in CCCCO): -2.91 kcal/mol
solvation free energy, 298 K (in CCCO): -3.49 kcal/mol
solvation free energy, 298 K (in CCO): -3.64 kcal/mol
solvation free energy, 298 K (in CN(C)C=O): -2.41 kcal/mol
solvation free energy, 298 K (in ClC(Cl)(Cl)Cl): -2.89 kcal/mol
solvation free energy, 298 K (in ClC(Cl)Cl): -3.9 kcal/mol
solvation free energy, 298 K (in O): -3.2 kcal/mol

Structure (SMILES): II
solvation free energy, 298 K (in Brc1ccccc1): -6.1 kcal/mol
solvation free energy, 298 K (in CC(C)CC(C)(C)C): -4.5 kcal/mol
solvation free energy, 298 K (in CCCCCC): -4.67 kcal/mol
solvation free energy, 298 K (in CCCCCCC): -4.66 kcal/mol
solvation free energy, 298 K (in CCCCCl): -5.63 kcal/mol
solvation free energy, 298 K (in CCO): -6.27 kcal/mol
solvation free energy, 298 K (in Cc1ccc(C)cc1): -6.21 kcal/mol
solvation free energy, 298 K (in Cc1cccc(C)c1): -6.25 kcal/mol
solvation free energy, 298 K (in Cc1ccccc1C): -6.23 kcal/mol
solvation free energy, 298 K (in ClC(Cl)(Cl)Cl): -5.25 kcal/mol
solvation free energy, 298 K (in ClC(Cl)Cl): -5.73 kcal/mol
solvation free energy, 298 K (in ClCCCl): -5.72 kcal/mol
solvation free energy, 298 K (in ClCCl): -5.62 kcal/mol
solvation free energy, 298 K (in Clc1ccccc1): -5.81 kcal/mol
solvation free energy, 298 K (in O): -2.54 kcal/mol

Structure (SMILES): COC(=O)OC
solvation free energy, 298 K (in C1CCCCC1): -3.6 kcal/mol
solvation free energy, 298 K (in CC(Cl)(Cl)Cl): -4.63 kcal/mol
solvation free energy, 298 K (in CCC1CO1): -4.73 kcal/mol
solvation free energy, 298 K (in CCCO): -3.72 kcal/mol
solvation free energy, 298 K (in COC(C)(C)C): -4.24 kcal/mol
solvation free energy, 298 K (in ClC(Cl)(Cl)Cl): -4.27 kcal/mol
solvation free energy, 298 K (in ClCCCl): -5.04 kcal/mol
solvation free energy, 298 K (in O): -3.53 kcal/mol
solvation free energy, 298 K (in c1ccccc1): -4.66 kcal/mol

Structure (SMILES): ClCc1ccccc1
solvation free energy, 298 K (in C1COCCO1): -7.23 kcal/mol
solvation free energy, 298 K (in CC(C)(C)O): -6.07 kcal/mol
solvation free energy, 298 K (in CC(C)O): -5.99 kcal/mol
solvation free energy, 298 K (in CCCCO): -6.08 kcal/mol
solvation free energy, 298 K (in CCCO): -6.06 kcal/mol
solvation free energy, 298 K (in CCO): -6.22 kcal/mol
solvation free energy, 298 K (in CO): -6.37 kcal/mol
solvation free energy, 298 K (in O): -1.88 kcal/mol

Other lines, results leading:

solvation free energy, 298 K (in CCCO): -11.1 kcal/mol
Structure (SMILES): COC(=O)c1ccc(N)cc1

solvation free energy, 298 K (in CC(C)CC(C)(C)C): -6.48 kcal/mol
solvation free energy, 298 K (in CCCCCC): -6.77 kcal/mol
solvation free energy, 298 K (in CCCCCCC): -6.71 kcal/mol
solvation free energy, 298 K (in CCCCCCCC): -6.69 kcal/mol
solvation free energy, 298 K (in O): -6.28 kcal/mol
Structure (SMILES): Cc1cc(C)cc(O)c1

solvation free energy, 298 K (in O): -2.01 kcal/mol
Structure (SMILES): COC(C)C

solvation free energy, 298 K (in O): -14.2 kcal/mol
Structure (SMILES): O=C1c2ccccc2C(=O)c2c(NCCO)cccc21

solvation free energy, 298 K (in O): -1.12 kcal/mol
Structure (SMILES): CC1=CCC(C(C)C)c2cc(C)ccc21 (centres undefined)

solvation free energy, 298 K (in O): -3.2 kcal/mol
Structure (SMILES): CC1CCC(C(C)C)C(O)C1 (centres undefined)

solvation free energy, 298 K (in CCCCCCCC): -4.59 kcal/mol
solvation free energy, 298 K (in CCCCCCCCCC): -4.54 kcal/mol
solvation free energy, 298 K (in O): -3.92 kcal/mol
Structure (SMILES): CCCC(C)(C)O

solvation free energy, 298 K (in CCCCCCC): -6.13 kcal/mol
Structure (SMILES): CC(C)CC(=O)CC(C)C

solvation free energy, 298 K (in O): -5.47 kcal/mol
Structure (SMILES): CCCCNCc1ccc(C)cc1

solvation free energy, 298 K (in O): -9.61 kcal/mol
Structure (SMILES): O=C1NC(=O)c2ccccc21

solvation free energy, 298 K (in O): -16.7 kcal/mol
Structure (SMILES): O=C1NC(=O)C(c2ccccc2)(c2ccccc2)N1

solvation free energy, 298 K (in CC(C)CC(C)(C)C): -6.71 kcal/mol
solvation free energy, 298 K (in O): -3.91 kcal/mol
Structure (SMILES): COC(=O)c1ccccc1

solvation free energy, 298 K (in O): -2.1 kcal/mol
Structure (SMILES): CCOC

solvation free energy, 298 K (in O): 0.5 kcal/mol
Structure (SMILES): CC1=CCC2(C(C)C)CC12 (centres undefined)

solvation free energy, 298 K (in O): -5.12 kcal/mol
Structure (SMILES): CC(=O)CC(=O)C(C)(C)C

solvation free energy, 298 K (in CC(C)CC(C)(C)C): -6.55 kcal/mol
solvation free energy, 298 K (in O): -5.26 kcal/mol
Structure (SMILES): Cc1cccc(C)c1O

solvation free energy, 298 K (in C=CCCCCCCC=C): -21.7 kcal/mol
solvation free energy, 298 K (in C=CCCCCCCCCCCCCCC): -20.9 kcal/mol
solvation free energy, 298 K (in O): -25.4 kcal/mol
Structure (SMILES): CC12CCC(=O)C=C1CCC1C2C(O)CC2(C)C1CCC2(O)C(=O)CO (centres undefined)

solvation free energy, 298 K (in O): -4.42 kcal/mol
Structure (SMILES): COC(C)(OC)OC

solvation free energy, 298 K (in O): -3.73 kcal/mol
Structure (SMILES): CCC(CC)CO

solvation free energy, 298 K (in O): -6.78 kcal/mol
Structure (SMILES): Cc1cccc(Nc2ccccc2C(=O)O)c1C

solvation free energy, 298 K (in O): -5.33 kcal/mol
Structure (SMILES): COC(=O)c1ccc(OC)cc1

solvation free energy, 298 K (in O): -4.78 kcal/mol
Structure (SMILES): CC(=O)Oc1ccccc1

solvation free energy, 298 K (in O): 0.78 kcal/mol
Structure (SMILES): CC1=CCC23CC1C(C)(C)C2CCC3C (centres undefined)

solvation free energy, 298 K (in O): -4.33 kcal/mol
Structure (SMILES): CCc1ccccn1

solvation free energy, 298 K (in O): 0.97 kcal/mol
Structure (SMILES): CC1=CCC2CC1C2(C)C (centres undefined)

solvation free energy, 298 K (in O): 0.29 kcal/mol
Structure (SMILES): CC1=CCC2C3C1C2(C)CCCC3(C)C (centres undefined)
